Test system: SARS-CoV-2
Assay: microbe, parasite or virus in culture
Conditions: Severe acute respiratory syndrome coronavirus 2, Vero C1008, 48 h

Row | Structure (SMILES) | IC50 [µM] | IC50 (read-out: pIC50 (converted)) [µM]
1 | CC(=O)Nc1ccc(/C=N/NC(N)=S)cc1 [AMITHIOZONE] | > 20 | > 20
2 | Nc1ccncc1N [AMIFAMPRIDINE] | > 20 | > 20
3 | CN/C(=N\CCSCc1nc[nH]c1C)NC#N [CIMETIDINE] | > 20 | > 20
4 | CCOC(=O)N1CCC(=O)N(c2ccccc2)c2cc(Cl)ccc21 [ARFENDAZAM] | > 20 | > 20
5 | O=c1c(-c2ccccc2)c1-c1ccccc1 [DIPHENCYPRONE] | > 20 | > 20
6 | COCc1c(-c2ccc(NC(=O)Nc3cc(C(F)(F)F)ccc3F)c(F)c2)c2c(N)ncnn2c1CN1CCOCC1 | > 20 | > 20
7 | CC[C@@H](c1cccc(O)c1)[C@@H](C)CN(C)C [TAPENTADOL] | > 20 | > 20
8 | COc1ccc(C(=O)/C=C/c2ccccc2)cc1 [4'-METHOXYCHALCONE] | > 20 | > 20
9 | Cc1ncc(CSSCc2cnc(C)c(O)c2CO)c(CO)c1O [PYRITINOL] | > 20 | > 20
10 | CCN(CC)C(C)C(=O)c1ccccc1 (stereo not given) [DIETHYLPROPION] | > 20 | > 20
11 | Nc1cc(N2CCCCC2)nc(N)[n+]1[O-] [MINOXIDIL] | > 20 | > 20
12 | Cc1cc2c(C(C)C)c(O)c(O)c(C=O)c2c(O)c1-c1c(C)cc2c(C(C)C)c(O)c(O)c(C=O)c2c1O [GOSSYPOL] | > 20 | > 20
13 | CCc1oc2ccccc2c1C(=O)c1cc(I)c(O)c(I)c1 [BENZIODARONE] | > 20 | > 20
14 | COC(=O)Nc1nc2cc(C(=O)c3ccccc3)ccc2[nH]1 [MEBENDAZOLE] | > 20 | > 20
15 | Clc1cnccn1 | > 20 | > 20
16 | O=C(O)c1nn(Cc2ccc(Cl)cc2Cl)c2ccccc12 [LONIDAMINE] | > 20 | > 20
17 | O=C1CCC(c2ccccc2)(C2CCN(Cc3ccccc3)CC2)C(=O)N1 (stereo not given) [BENZETIMIDE] | > 20 | > 20
18 | CN1CCc2cc3c(cc2C1O)OCO3 (stereo not given) [HYDRASTININE] | > 20 | > 20
19 | COC(c1ccccc1)(c1ccccc1)[C@H](Oc1nc(C)cc(C)n1)C(=O)O [AMBRISENTAN] | > 20 | > 20
20 | CC(=O)NC1CCSC1=O (stereo not given) [CITIOLONE] | > 20 | > 20
21 | N=c1ccn2c(n1)O[C@H]1[C@H](O)[C@@H](CO)O[C@H]12 [ANCITABINE] | > 20 | > 20
22 | CC1(C)O[C@@H]2C[C@H]3[C@@H]4CCC5=CC(=O)CC[C@]5(C)[C@@]4(F)[C@@H](O)C[C@]3(C)[C@]2(C(=O)CCl)O1 [HALCINONIDE] | > 20 | > 20
23 | CC1(C)CC[C@]2(C(=O)O)CC[C@]3(C)C(=CCC4[C@@]5(C)CC[C@@H](O)[C@@](C)(CO)C5CC[C@]43C)C2C1 (stereo not given in full) | > 20 | > 20
24 | CCCCNC(=O)NS(=O)(=O)c1ccc(N)cc1 [CARBUTAMIDE] | > 20 | > 20
25 | O=C1CCCC2C3CC(CN12)[C@@H]1CCCCN1C3 (stereo not given in full) | > 20 | > 20

Row | Structure (SMILES) | IC50 [µM] | IC50 (read-out: pIC50 (converted)) [µM]
26 | C[C@]12CCC(=O)C[C@@H]1CC[C@@H]1[C@@H]2CC[C@]2(C)[C@@H](O)CC[C@@H]12 [STANOLONE] | > 20 | > 20
27 | C[C@]12CC[C@@H]3c4ccc(OS(=O)(=O)O)cc4CC[C@H]3[C@@H]1CCC2=O [ESTRONE SULFURIC ACID] | > 20 | > 20
28 | C[C@@H]1CC2C3CCC4=CC(=O)C=CC4(C)[C@@]3(Cl)C(Cl)CC2(C)[C@@]1(O)C(=O)CO (stereo not given in full) | > 20 | > 20
29 | CC(C)(C)c1cc2c(cc1Cl)C=C(C(=O)O)C(C(F)(F)F)O2 (stereo not given) | > 20 | > 20
30 | Cc1cccc(C)c1NC(=O)C1CCCCN1C (stereo not given) [MEPIVACAINE] | > 20 | > 20
31 | O=C(CCCN1CCC(n2c(=O)[nH]c3ccccc32)CC1)c1ccc(F)cc1 [BENPERIDOL] | > 20 | > 20
32 | COc1ccc(CN(CCN(C)C)c2ncccn2)cc1 [THONZYLAMINE] | > 20 | > 20
33 | O=C(O)[C@H]1CCCC[C@]1(O)c1ccccc1 | > 20 | > 20
34 | C[C@@H](OC[C@@]1(c2ccccc2)CC[C@]2(CCC(=O)N2)CN1)c1cc(C(F)(F)F)cc(C(F)(F)F)c1 [ROLAPITANT] | > 20 | > 20
35 | CCOc1ccccc1O[C@@H](c1ccccc1)[C@H]1CNCCO1 | > 20 | > 20
36 | CO[C@@]1(NC(=O)CSCC#N)C(=O)N2C(C(=O)O)=C(CSc3nnnn3C)CS[C@@H]21 [CEFMETAZOLE] | > 20 | > 20
37 | O=c1[nH]c(=O)c2ccccc2o1 | > 20 | > 20
38 | CC(C)C1C(=O)N2CCCC2C2(O)OC(NC(=O)C3C=C4c5cccc6[nH]cc(c56)CC4N(C)C3)(C(C)C)C(=O)N12 (stereo not given) | > 20 | > 20
39 | Nc1ccc(C(=O)O)c(O)c1 [AMINOSALICYLIC ACID] | > 20 | > 20
40 | Cc1ncc(C[n+]2csc(CCO)c2C)c(N)n1 [THIAMINE ION] | > 20 | > 20
41 | CCOC(=O)C1=C[C@]2(CC)CCCN3CCc4c(n1c1ccccc41)[C@@H]32 [VINPOCETINE] | > 20 | > 20
42 | c1ccc(C(CCN2CCCCCC2)c2ccccc2)cc1 [PROZAPINE] | > 20 | > 20
43 | CC(CCC(=O)O)C1CCC2C3CC[C@@H]4C[C@H](O)CC[C@]4(C)C3C[C@H](O)[C@]12C (stereo not given in full) | > 20 | > 20
44 | N=C(N)c1ccc(OCCCCCOc2ccc(C(=N)N)cc2)cc1 [PENTAMIDINE] | > 20 | > 20
45 | Nc1ccc(F)cc1NC(=O)c1ccc(CNC(=O)/C=C/c2cccnc2)cc1 | > 20 | > 20
46 | COC(=O)Nc1cccc(C)c1CNc1cccn2c(C)c(C)nc12 [PUMAPRAZOLE] | > 20 | > 20
47 | CCC(=O)c1ccc(O)cc1 [PAROXYPROPIONE] | > 20 | > 20
48 | COc1ccc2oc3ccccc3c(=O)c2c1 | > 20 | > 20
49 | Cc1cc(NS(=O)(=O)c2ccc(N)cc2)no1 [SULFAMETHOXAZOLE] | > 20 | > 20
50 | Nc1cc(Cl)c(N=C2NCCN2)c(Cl)c1 [APRACLONIDINE] | > 20 | > 20

Row | Structure (SMILES) | IC50 [µM] | IC50 (read-out: pIC50 (converted)) [µM]
51 | CN(C/C=C/C#CC(C)(C)C)Cc1cccc2ccccc12 [TERBINAFINE] | > 20 | > 20
52 | O=C(Nc1cc(Cl)cc(Cl)c1O)c1c(O)c(Cl)cc(Cl)c1Cl [OXYCLOZANIDE] | > 20 | > 20
53 | NC(=O)CCC/N=C(/c1ccc(Cl)cc1)c1cc(F)ccc1O | > 20 | > 20
54 | S=C(NCc1ccc2c(c1)OCO2)N1CCN(c2ncnc3c2oc2ccccc23)CC1 [AMUVATINIB] | > 20 | > 20
55 | CN1CC(O)C2=CC(=NNC(N)=O)C(=O)C=C21 (stereo not given) | > 20 | > 20
56 | Cc1cc(Nc2nc(N[C@@H](C)c3ncc(F)cn3)ncc2Cl)[nH]n1 [AZD-1480] | > 20 | > 20
57 | Clc1ccc(Cn2c(CN3CCCC3)nc3ccccc32)cc1 [CLEMIZOLE] | > 20 | > 20
58 | CC(C)(C)c1nc(-c2cccc(NS(=O)(=O)c3c(F)cccc3F)c2F)c(-c2ccnc(N)n2)s1 [DABRAFENIB] | > 20 | > 20
59 | COc1cc(CCc2cc(NC(=O)c3ccc(N4C[C@@H](C)N[C@@H](C)C4)cc3)n[nH]2)cc(OC)c1 [FEXAGRATINIB] | > 20 | > 20
60 | CCC(=O)OCC(=O)[C@@]1(OC(=O)CC)[C@H](C)C[C@H]2[C@H]3[C@H]([C@@H](O)C[C@@]21C)[C@@]1(C)C=CC(=O)C=C1C[C@H]3Cl [ALCLOMETASONE DIPROPIONATE] | > 20 | > 20
61 | CCCCCCCCCCCC1=C(O)C(=O)C=C(O)C1=O [EMBELIN] | > 20 | > 20
62 | CN(C)CC(=O)O | > 20 | > 20
63 | CC(C)c1ncc([N+](=O)[O-])n1C [IPRONIDAZOLE] | > 20 | > 20
64 | CN(CCOc1ccc(NS(C)(=O)=O)cc1)CCc1ccc(NS(C)(=O)=O)cc1 [DOFETILIDE] | > 20 | > 20
65 | NCc1ccc(S(N)(=O)=O)cc1 [MAFENIDE] | > 20 | > 20
66 | C[C@H]1CN([C@H]2CC[C@](C#N)(c3ccc(F)cc3)CC2)CC[C@]1(C(=O)O)c1ccccc1 | > 20 | > 20
67 | O=C(NC[C@H](O)CN1CCc2ccccc2C1)c1cc(NC2COC2)ncn1 | > 20 | > 20
68 | O=C(O)[C@H]1C[C@H]([C@H]2CCCCN2)CN2CCCC[C@H]12 | > 20 | > 20
69 | C[C@H]1O[C@@H](O[C@H]2[C@@H](O)C[C@H](O[C@H]3[C@@H](O)C[C@H](O[C@H]4CC[C@@]5(C)[C@H](CC[C@@H]6[C@@H]5CC[C@]5(C)[C@@H](C7=CC(=O)OC7)CC[C@]65O)C4)O[C@@H]3C)O[C@@H]2C)C[C@H](O)[C@@H]1O [DIGITOXIN] | > 20 | > 20
70 | CO[C@@H]1[C@H](OP(=O)(OC[C@H]2O[C@@H](n3cnc4c(N)ncnc43)C[C@@H]2O)SCOC(=O)OC(C)C)[C@@H](CO)O[C@H]1n1ccc(=O)[nH]c1=O (stereo not given in full) [INARIGIVIR SOPROXIL] | > 20 | > 20
71 | c1ccc(CC2=NCCN2)cc1 [TOLAZOLINE] | > 20 | > 20
72 | CN1CCc2c(c3ccccc3n2Cc2ccccc2)C1 [MEBHYDROLIN] | > 20 | > 20
73 | CN(C)CCCC1(c2ccc(F)cc2)OCc2cc(C#N)ccc21 (stereo not given) [CITALOPRAM] | > 20 | > 20
74 | CC(C)NC1CCC(c2ccccc2)(c2ccccc2)CC1 [PRAMIVERINE] | > 20 | > 20
75 | CNC(C)(C)Cc1ccccc1 [MEPHENTERMINE] | > 20 | > 20

Source: ChEMBL document CHEMBL4651402, “Screening of ~5500 FDA-approved drugs and clinical candidates for anti-SARS-CoV-2 activity” (2021)
